Drawing on US10550099B2 (FORMA Therapeutics, Inc., priority 2014, dated 2020), this text covers IC50 for four molecules.

Read-outs that look alike come from different tables or passages of the source. Some results are limits rather than exact numbers.

By IC50 is commonly meant the concentration that inhibits the measured activity by half.

Test [1] addresses IDH1-R132C recombinant protein (Homo sapiens (Human), UniProt O75874, R132C). Briefly: IDH1-R132C enzymatic assay (diaphorase/resazurin readout of NADPH consumption). The test is classed as biochemical. The following applies: IDH1-R132C enzyme; read-out: Enzyme IDH1 R132C IC50 (Range). The method, then: (§1) Assays were performed in a 384-well black plate. An aliquot of 250 nL of compound was incubated with 10 μL of 30 nM IDH1-R132H or 10 nM IDH1-R132C recombinant protein in assay buffer (50 mM Tris pH=7.5, 150 mM NaCl, 5 mM MgCl2, 0.1% (w/v) Bovine Serum Albumin, and 0.01% Triton X-100) in each well at 25° C. for 15 minutes. After the plate was centrifuged briefly, an aliquot of 10 μL of 2 mM α-ketoglutarate and 20 μM NADPH solution prepared in assay buffer was then added to each well and the reaction was maintained at 25° C. for 45 minutes. An aliquot of 10 μL of diaphorase solution (0.15 U/mL diaphorase and 30 μM Resazurin in assay buffer) was added to each well. The plate was maintained at 25° C. for 15 minutes and then read on a plate reader with excitation and emission wavelengths at 535 nm and 590 nm, respectively. The IC50 of a given compound was calculated by fitting the dose response curve of inhibition of NADPH consumption at a given concentration with the four parameter logistic equation.
Background: Alamar Blue is a resazurin reagent that responds to reducing activity.

The target in test [2] is IDH1-R132H recombinant protein (Homo sapiens (Human), UniProt O75874, R132H). Briefly: IDH1-R132H enzymatic assay (diaphorase/resazurin readout of NADPH consumption). In kind it is biochemical. The following applies: IDH1-R132H enzyme; read-out: Enzyme IDH1 R132H IC50 (Range). The method, then:
as §1

The test system of test [3] is HCT116 isogenic IDH1-R132C mutant cells. Briefly: Cellular 2-HG assay using HCT116 mutant IDH1 cells (IDH1-R132C), RapidFire mass spectrometry. In kind it is cell-based. How it is done:
(§2) Example 106—Cellular 2-HG Assay Using HCT116 Mutant IDH1 Cells
(§3) HCT116 isogenic IDH1-R132H and IDH1-R132C mutant cells were cultured in growth media (McCoy's 5A, 10% fetal bovine serum, 1× antibiotic-antimycotic solution and 0.3 mg/mL G418) in 5% CO2 in an incubator at 37° C. To prepare the assay, cells were trypsinized and resuspended in assay media (McCoy's 5A with no L-glutamine, 10% fetal bovine serum, 1× antibiotic-antimycotic solution and 0.3 mg/mL G418). An aliquot of 10,000 cells/100 μL was transferred to each well of a clear 96-well tissue culture plate. The cells were incubated in 5% CO2 at 37° C. in an incubator overnight to allow for proper cell attachment. An aliquot of 50 μL of compound containing assay media were then added to each well and the assay plate was kept in 5% CO2 at 37° C. in an incubator for 24 hours. The media was then removed from each well and 150 μL of a methanol/water mixture (80/20 v/v) was added to each well. The plates were kept at −80° C. freezer overnight to allow for complete cell lysis. An aliquot of 125 μL of extracted supernatant was analyzed by RapidFire high-throughout-mass spectrometry (Agilent) to determine the cellular 2-HG level. The IC50 of a given compound was calculated by fitting the dose response curve of cellular 2-HG inhibition at a given concentration with the four parameter logistic equation.

Test [4] relates to HCT116 isogenic IDH1-R132H mutant cells. Briefly: Cellular 2-HG assay using HCT116 mutant IDH1 cells (IDH1-R132H), RapidFire mass spectrometry. The test is classed as cell-based. The method, then: as §2, §3
Setting [5] is: Homo sapiens, HCT-116, read-out: HCT116 IDH1 R132C IC50 (Range).
[6] abbreviates: Homo sapiens, HCT-116, read-out: HCT116 IDH1 R132H IC50 (Range).

Sequence of IDH1-R132C recombinant protein (O75874 whole entry R132C): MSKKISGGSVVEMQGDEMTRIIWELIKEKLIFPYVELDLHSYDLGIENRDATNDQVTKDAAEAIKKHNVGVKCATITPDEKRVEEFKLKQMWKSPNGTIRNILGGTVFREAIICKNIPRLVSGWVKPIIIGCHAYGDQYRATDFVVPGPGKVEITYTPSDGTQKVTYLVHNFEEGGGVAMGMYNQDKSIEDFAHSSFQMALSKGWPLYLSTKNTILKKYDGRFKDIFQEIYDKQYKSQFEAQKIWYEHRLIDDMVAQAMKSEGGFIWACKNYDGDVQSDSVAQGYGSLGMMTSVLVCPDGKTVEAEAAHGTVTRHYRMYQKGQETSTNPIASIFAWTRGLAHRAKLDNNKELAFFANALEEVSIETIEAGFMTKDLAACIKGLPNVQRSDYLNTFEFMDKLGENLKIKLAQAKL
Sequence of IDH1-R132H recombinant protein (O75874 whole entry R132H): as the sequence (O75874 whole entry R132C) above, with C132H counted along it

Regarding `COC(=O)C(c1ccnc(N[C@@H](C)c2cc3cc(Cl)ccc3[nH]c2=O)n1)S(C)(=O)=O` (stereo partly shown) [I-134], the IC50 in test [1] is greater than 10000 nM.

In the case of `COc1nc(N[C@H](C)c2nc3cc(Cl)ccc3[nH]c2=O)ncc1C#N` [I-157], the IC50 is 1000 to 10000 nM in test [1], 100 to 1000 nM in test [2], 100 to 1000 nM in test [3] (read-out: HCT116 IDH1 R132C IC50 (Range)) and less than 100 nM in test [4] (read-out: HCT116 IDH1 R132H IC50 (Range)).

As to `CC(C)Cn1nccc1-c1ccnc(N[C@@H](C)c2cc3cc(Cl)ccc3[nH]c2=O)n1` [I-85], the IC50 in test [1], in test [2], in test [3] (setting [5]) and in test [4] (setting [6]) was 100 to 1000 nM throughout.

As to `Cc1[nH]ncc1-c1ccnc(N[C@@H](C)c2cc3cc(Cl)ccc3[nH]c2=O)n1` [I-83], the IC50 was in the range of 1000 to 10000 nM in test [1], 100 to 1000 nM in test [2], 100 to 1000 nM in test [3] (setting [5]) and 1000 to 10000 nM in test [4] (setting [6]).
